Like-named read-outs stand apart in the source and are kept apart here. Where a SMILES comes first, the peptide text is derived from it. Bridges are numbered along the chain shown (N, C = ends).
Assays:
TRPA1-expressing oocytes = settings: cited from earlier work
Experimental: Oocytes expressing rat TRPA1 (Q6RI86) channel were prepared as described previously. Experiments were approved by the Institutional Animal Care and Use Committee (IACUC) of the Shemyakin–Ovchinnikov Institute of Bioorganic Chemistry Russian Academy of Sciences (Protocol Number 267/2018; date of approval: 28 February 2019). Female frogs were anaesthetized with 0.17% solution of tricaine methane sulfonate (MS222) and oocytes were surgically removed. cRNA was synthesized using a HiScribe™ T7 High Yield RNA Synthesis Kit (New England Biolabs, Ipswich, MA, USA) according to the manufacturers’ ...

[1] = target: T1, rat TRPA1 (Q6RI86) channel (Rattus norvegicus, UniProt Q6RI86); test: Potentiation of diclofenac-induced TRPA1 currents, two-electrode recordings in Xenopus laevis oocytes; type: cell-based; settings: for Diclofenac-induced inward current potentiated up to (maximal, % of control) / EC50 / Diclofenac-induced outward current potentiated up to (maximal, % of control): oocytes expressing rat TRPA1, diclofenac 300 μM; for EC50: Ca2+-free solution, 22–24 °C, mean ± SD of 4–7 measurements, SD; for Maximal potentiating effect lower than that of Ms 9a-1: compared to Ms 9a-1, inward and outward currents
T1 construct: expressed in transfected cells; host or cells: Xenopus laevis oocytes injected with cRNA
Experimental: Peptide activity was measured in Xenopus laevis oocytes, heterologously expressing the TRPA1 channel (Figure 2 and Figure S2). Recordings occurred in repeated 4 s pulses of voltage ramp from −100 mV to 100 mV over 200 ms, whereby inward current was measured at −100 mV and outward at 100 mV.
Oocytes expressing rat TRPA1 (Q6RI86) channel were prepared as described previously. Experiments were approved by the Institutional Animal Care and Use Committee (IACUC) of the Shemyakin–Ovchinnikov Institute of Bioorganic Chemistry Russian Academy of Sciences (Protocol Number 267/2018; date of approval: 28 February 2019). Female frogs were anaesthetized with 0.17% solution of tricaine methane sulfonate (MS222) and oocytes were surgically removed. cRNA was synthesized using a HiScribe™ T7 High Yield RNA Synthesis Kit (New England Biolabs, Ipswich, MA, USA) according to the manufacturers’ protocol for capped transcripts and then injected in X. laevis oocytes. The oocytes were kept for 2–7 days at 16–17 °C in sterile ND-96 medium (96 mM NaCl, 2 mM KCl, 1.8 mM CaCl2, 1 mM MgCl2, 5 mM HEPES, pH 7.4) supplemented with 50 μg/mL gentamycin. Electrophysiological recordings were carried out at room temperature (22–24 °C) in Ca^2+-free solution (96 mM NaCl, 2 mM KCl, 1 mM MgCl2, 5 mM HEPES, pH 7.4) using the GeneClamp500 amplifier (Axon Instruments, Union City, CA, USA) at a holding potential of −50 mV. The data were filtered at 20 Hz and digitized at 100 Hz by an AD converter L780 (LCard, Moscow, Russia) using in-house software. Oocytes were impaled with two glass microelectrodes filled with 3 M KCl. Inward/outward currents were recorded at repeated every 4 seconds a stimuli comprising step from holding potential to −100 mV for 80 ms followed by voltage ramp from −100 mV to +100 mV for 200 ms and final step to holding potential. Diclofenac (300 μM in Ca^2+-free solution) was used to activate the channel.

[2] = cited from earlier work
Text: We compared the efficacy of peptides Ms 9a-1, C-Ms, N-Ms, Ms 9a-2, and Ms 9a-3 in models of AITC- ...

[3] = inward current at −100 mV, read-out: EC50 of potentiation of diclofenac-induced inward TRPA1 current
[4] = outward current at +100 mV, read-out: EC50 of potentiation of diclofenac-induced outward TRPA1 current

T1 sequence (Q6RI86 whole entry): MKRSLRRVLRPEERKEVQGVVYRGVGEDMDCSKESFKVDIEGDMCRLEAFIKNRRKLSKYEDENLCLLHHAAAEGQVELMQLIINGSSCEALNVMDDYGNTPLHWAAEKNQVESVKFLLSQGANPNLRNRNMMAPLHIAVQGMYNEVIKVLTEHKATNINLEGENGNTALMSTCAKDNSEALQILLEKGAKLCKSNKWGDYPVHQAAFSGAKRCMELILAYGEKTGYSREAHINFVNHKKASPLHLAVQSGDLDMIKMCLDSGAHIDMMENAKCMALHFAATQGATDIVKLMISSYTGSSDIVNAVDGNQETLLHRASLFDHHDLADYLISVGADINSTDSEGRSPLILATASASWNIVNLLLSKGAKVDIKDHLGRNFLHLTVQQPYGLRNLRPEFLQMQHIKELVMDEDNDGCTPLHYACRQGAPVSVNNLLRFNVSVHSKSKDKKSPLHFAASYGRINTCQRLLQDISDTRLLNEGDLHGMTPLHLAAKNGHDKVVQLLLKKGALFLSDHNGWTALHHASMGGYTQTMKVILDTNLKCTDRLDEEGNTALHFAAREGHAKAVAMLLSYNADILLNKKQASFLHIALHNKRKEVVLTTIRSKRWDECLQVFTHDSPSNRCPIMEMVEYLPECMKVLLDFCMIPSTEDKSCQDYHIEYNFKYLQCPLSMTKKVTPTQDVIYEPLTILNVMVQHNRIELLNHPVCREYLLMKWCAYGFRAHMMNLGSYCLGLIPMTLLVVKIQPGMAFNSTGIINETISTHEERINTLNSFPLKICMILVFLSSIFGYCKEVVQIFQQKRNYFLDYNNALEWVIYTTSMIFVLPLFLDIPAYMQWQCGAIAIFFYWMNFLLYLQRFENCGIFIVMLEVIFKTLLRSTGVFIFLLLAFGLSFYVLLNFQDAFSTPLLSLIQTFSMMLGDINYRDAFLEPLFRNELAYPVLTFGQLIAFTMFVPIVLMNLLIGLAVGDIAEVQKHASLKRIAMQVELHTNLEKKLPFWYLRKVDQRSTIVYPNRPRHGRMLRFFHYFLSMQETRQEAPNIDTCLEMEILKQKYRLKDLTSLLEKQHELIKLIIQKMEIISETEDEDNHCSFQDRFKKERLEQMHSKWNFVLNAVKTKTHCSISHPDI

Row | Structure (SMILES) | EC50 (TRPA1-expressing oocytes; X. laevis oocytes, read-out: EC50 of current increase in TRPA1-expressing oocytes) | Effect on uninjected oocytes of X. laevis (TRPA1-expressing oocytes; uninjected oocytes) | Diclofenac-induced inward current potentiated up to (maximal, % of control) ([1]; inward current at −100 mV) | EC50 [1, 3] | Diclofenac-induced outward current potentiated up to (maximal, % of control) ([1]; outward current at +100 mV) | EC50 [1, 4] | Pain or thermal hyperalgesia caused in vivo [2] | Maximal potentiating effect lower than that of Ms 9a-1 [1] | Increase of effective concentration (EC50) for inward current compared to Ms 9a-1 ([1]; inward current, relative to Ms 9a-1)
1 | O=C(O)Cc1ccccc1Nc1c(Cl)cccc1Cl [Diclofenac] | 210000 nM | no effect |  |  |  |  |  |  | 
2 | CC[C@H](C)[C@@H]1NC(=O)[C@@H](NC(=O)CNC(=O)CNC(=O)[C@@H](NC(=O)[C@@H](NC(=O)[C@@H](NC(=O)[C@@H](N)CC(N)=O)[C@@H](C)CC)[C@@H](C)CC)C(C)C)CSSC[C@@H]2NC(=O)[C@H](CCCNC(=N)N)NC(=O)CNC(=O)[C@H](CO)NC(=O)[C@H](C)NC(=O)[C@H](CC(N)=O)NC(=O)[C@H](CCCCN)NC(=O)[C@H](C(C)C)NC(=O)[C@H](Cc3c[nH]cn3)NC(=O)[C@H](CSSC[C@@H](C(=O)NCC(=O)N[C@H](C(=O)N[C@@H](CC(=O)O)C(=O)N[C@@H](CCCCN)C(=O)N[C@H](C(=O)N3CCC[C@H]3C(=O)N[C@@H](CC(=O)O)C(=O)N[C@@H](CC(C)C)C(=O)N[C@@H](Cc3ccccc3)C(=O)N[C@@H](CO)C(=O)O)C(C)C)C(C)C)NC(=O)CNC(=O)[C@H](C(C)C)NC(=O)[C@H]([C@@H](C)CC)NC(=O)[C@H](CCCNC(=N)N)NC(=O)[C@H](C(C)C)NC2=O)NC(=O)[C@H](CCCCN)NC1=O [Ms 9a-1] (H-NIIVGGCIKCHVKNASGRCVRIVGCGVDKVPDLFS-OH; disulfide 7-19, 10-25) |  |  | 190% | 210 ± 3 nM | 175% | 32 ± 7 nM | does not cause pain or thermal hyperalgesia |  | 
3 | CC[C@H](C)[C@@H]1NC(=O)[C@H](CCCNC(=N)N)NC(=O)[C@H](C(C)C)NC(=O)[C@@H]2CSSC[C@H](NC(=O)CNC(=O)CNC(=O)[C@@H](NC(=O)[C@@H](NC(=O)[C@@H](NC(=O)[C@@H](N)CC(N)=O)[C@@H](C)CC)[C@@H](C)CC)C(C)C)C(=O)N[C@@H](CO)C(=O)N[C@@H](CCCCN)C(=O)N[C@@H](CSSC[C@@H](C(=O)NCC(=O)N[C@H](C(=O)O)C(C)C)NC(=O)CNC(=O)[C@H](C)NC1=O)C(=O)N[C@@H](Cc1c[nH]cn1)C(=O)N[C@@H](CCCCN)C(=O)N[C@@H](CCC(N)=O)C(=O)N[C@@H](CC(=O)O)C(=O)N[C@@H](CO)C(=O)N[C@@H](CO)C(=O)NCC(=O)N[C@@H](CC(N)=O)C(=O)N2 [Ms 9a-2] (H-NIIVGGCSKCHKQDSSGNCVRIAGCGV-OH; disulfide 7-19, 10-25) |  |  | 139% | 412 ± 48 nM | 131% | 606 ± 201 nM |  | 45–50% | 3 times
4 | CC[C@H](C)[C@@H]1NC(=O)[C@H](CCCNC(=N)N)NC(=O)[C@H](C(C)C)NC(=O)[C@@H]2CSSC[C@H](NC(=O)CNC(=O)CNC(=O)[C@@H](NC(=O)[C@@H](NC(=O)[C@@H](NC(=O)[C@@H](N)CC(N)=O)[C@@H](C)CC)[C@@H](C)CC)C(C)C)C(=O)N[C@@H](CO)C(=O)N[C@@H](CCCCN)C(=O)N[C@@H](CSSC[C@@H](C(=O)NCC(=O)N[C@H](C(=O)O)C(C)C)NC(=O)CNC(=O)[C@H](C)NC1=O)C(=O)N[C@@H](Cc1c[nH]cn1)C(=O)N[C@@H]([C@@H](C)O)C(=O)N[C@@H](CCC(=O)O)C(=O)N[C@@H](CC(=O)O)C(=O)N[C@@H](CO)C(=O)N[C@@H](CC(N)=O)C(=O)NCC(=O)N[C@@H](CC(N)=O)C(=O)N2 [Ms 9a-3] (H-NIIVGGCSKCHTEDSNGNCVRIAGCGV-OH; disulfide 7-19, 10-25) |  |  | 159% | 5440 ± 2900 nM | 175% | 7800 ± 600 nM |  | 15–30% | 

Reference: publication PMC9320628, “Analysis of Structural Determinants of Peptide MS 9a-1 Essential for Potentiating of TRPA1 Channel” (Marine Drugs, 2022)
